Results reported in publication PMC8960621, “Solution speciation and human serum protein binding of indium(III) complexes of 8-hydroxyquinoline, deferiprone and maltol” (Journal of Biological Inorganic Chemistry, 2022).

Columns and labels:
[1] = design: method as in PMID 25398250; details: same LMM competitors in tenfold excess, investigated separately; cited from earlier work
[2] = biological target: T1, apoTf (Homo sapiens, UniProt P02787); assay: Interaction with (apo)Tf: ligand displacement and binding of the intact complex (UV-vis, fluorescence, ultrafiltration); details: pH 7.40
T1 construct: purchased Sigma-Aldrich T2036
Description: Therefore, UV–vis and fluorescence emission spectra of InQ3 were recorded in the presence of increasing amounts of apoTf (Fig. 5a, b). After a short initial phase, the absorbance band of InQ3 is reduced gradually by the addition of the protein, while the development of the new band at lower wavelengths (at ca. 310 nm) refers to the liberation of HQ. Namely, there is a competition for In(III) ion between the ligand and the iron-binding sites of apoTf. Absorbance values depicted at 370 nm and 310 nm (Fig. 5c) saturate roughly to the corresponding values of the free ligand and outline a sigmoidal shape. Fluorescence intensity of the same sample set (Fig. 5b, d) was enhanced and moderately blue shifted (from λmax = 540 nm to 532 nm) until the addition of ca. 0.2 equiv. apoTf. […] Then, by the addition of more apoTf, intensities decreased and λmax shifted further to shorter wavelengths (527 nm). […] Based on this and the results of apoTf quenching (vide supra) protein binding of the non-dissociated complex is presumed. This is further supported by fluorescence lifetime measurements; where new lifetime components τ3 = 4.7 ± 0.2 ns and τ4 = 13.8 ± 0.4 ns appeared for InQ3 in the presence of 0.1 – 0.3 equiv. apoTf (after 1 min waiting time). […] Here, the sigmoid shape of the UV–vis absorbance was seen again (Fig. S5) and the shifted inflection point in comparison to the titration with apoTf underlines the lower In(III) binding capacity of Tf. […]
In the case of InD3, the absorbance bands of the metal complex and apoTf overlap in great extent, however, spectra can be deconvoluted to the spectra of InD3, deferiprone and apoTf (see Fig S6 for details), and molar fractions of the respective species can be calculated (Fig. 6). Ultrafiltration experiments were carried out as well for the InD3 – apoTf system and the non-protein bound LMM fractions were analyzed by UV–vis spectrophotometry (Fig. 6). […] The complex dissociated in line with the addition of apoTf and a practically quantitative displacement of deferiprone seems to take place by the addition of ca. 0.5 equiv. apoTf. […]

[3] = biological target: T2, human serum albumin (HSA) (Homo sapiens, UniProt P02768); design: method as in PMID 25398250; details: cited from earlier work
T2 construct: purchased Sigma-Aldrich A8763

[4] = biological target: T2, human serum albumin (HSA); assay: HSA binding by membrane ultrafiltration-UV-vis; details: 2.5 equiv. protein
[5] = biological target: T1, apoTf; assay: Fluorescence lifetime (TCSPC) of InQ3 in the presence of apoTf; type: binding; details: in the presence of 0.1 – 0.3 equiv. apoTf, after 1 min waiting time
Description: Therefore, UV–vis and fluorescence emission spectra of InQ3 were recorded in the presence of increasing amounts of apoTf (Fig. 5a, b). After a short initial phase, the absorbance band of InQ3 is reduced gradually by the addition of the protein, while the development of the new band at lower wavelengths (at ca. 310 nm) refers to the liberation of HQ. Namely, there is a competition for In(III) ion between the ligand and the iron-binding sites of apoTf. Absorbance values depicted at 370 nm and 310 nm (Fig. 5c) saturate roughly to the corresponding values of the free ligand and outline a sigmoidal shape. Fluorescence intensity of the same sample set (Fig. 5b, d) was enhanced and moderately blue shifted (from λmax = 540 nm to 532 nm) until the addition of ca. 0.2 equiv. apoTf. […] Then, by the addition of more apoTf, intensities decreased and λmax shifted further to shorter wavelengths (527 nm). […] This is further supported by fluorescence lifetime measurements; where new lifetime components τ3 = 4.7 ± 0.2 ns and τ4 = 13.8 ± 0.4 ns appeared for InQ3 in the presence of 0.1 – 0.3 equiv. apoTf (after 1 min waiting time). […] Here, the sigmoid shape of the UV–vis absorbance was seen again (Fig. S5) and the shifted inflection point in comparison to the titration with apoTf underlines the lower In(III) binding capacity of Tf. […]

[6] = Interaction of tris-ligand complexes with low molecular mass serum components (phosphate, citrate, oxalate), UV-vis; type: physicochemical; details: tenfold excess of the LMM ligands (phosphate, citrate, oxalate), pH 7.4
Source text: As a first step, interaction of the tris-ligand In(III) complexes with various LMM blood serum components was investigated and compared to that of GaQ3 studied formerly in our research group. The LMM compounds are considered to be more mobile than the high molecular mass components (HMM) such as proteins, and generally their reaction is characterized by faster kinetics. The role of serum compounds might have importance on the distribution of the In(III) complexes since they may be responsible for (partial) displacement of the originally coordinated ligand and they can also form mixed-ligand complexes. The complexes of In(III) and Ga(III) formed with HQ (InQ3, GaQ3), deferiprone (InD3) and maltol (InM3) were prepared in an aqueous solution by mixing the respective ligand and the metal ion in 3:1 ratio. […] All the measurements in this work were performed at 25 °C as most of the stability constants used for the modeling calculations published in the literature were determined at this temperature. UV–vis spectra recorded for the tris-ligand complexes at 10 μM concentration (see Fig. S1a for InQ3) in this buffer show 94%, 90% and < 20% non-dissociated InQ3, InD3 and InM3, respectively, which corresponds well to the fractions obtained using the stability constants determined at 0.20 M KCl: 90% (InQ3), 86% (InD3) and 9% InM3 and 6% InM^2+. […]

T1 sequence (P02787 20-698): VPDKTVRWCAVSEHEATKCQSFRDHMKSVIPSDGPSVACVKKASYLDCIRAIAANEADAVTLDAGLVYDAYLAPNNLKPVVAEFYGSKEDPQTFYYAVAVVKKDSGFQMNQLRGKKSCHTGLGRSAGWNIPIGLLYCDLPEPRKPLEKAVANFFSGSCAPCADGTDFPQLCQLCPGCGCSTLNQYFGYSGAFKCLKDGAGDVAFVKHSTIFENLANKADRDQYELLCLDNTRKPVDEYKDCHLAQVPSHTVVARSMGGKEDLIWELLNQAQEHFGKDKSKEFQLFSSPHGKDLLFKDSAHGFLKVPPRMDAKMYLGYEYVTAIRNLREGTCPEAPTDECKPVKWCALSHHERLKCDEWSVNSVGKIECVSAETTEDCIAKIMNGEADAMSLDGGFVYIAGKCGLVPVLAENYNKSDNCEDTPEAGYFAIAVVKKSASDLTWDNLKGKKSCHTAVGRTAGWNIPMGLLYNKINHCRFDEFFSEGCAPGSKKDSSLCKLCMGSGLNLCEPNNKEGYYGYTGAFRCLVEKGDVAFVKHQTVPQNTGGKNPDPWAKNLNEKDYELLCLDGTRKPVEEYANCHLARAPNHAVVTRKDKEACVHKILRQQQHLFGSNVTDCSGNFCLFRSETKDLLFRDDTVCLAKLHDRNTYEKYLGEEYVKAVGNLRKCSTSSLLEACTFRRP
T2 sequence (P02768 25-609): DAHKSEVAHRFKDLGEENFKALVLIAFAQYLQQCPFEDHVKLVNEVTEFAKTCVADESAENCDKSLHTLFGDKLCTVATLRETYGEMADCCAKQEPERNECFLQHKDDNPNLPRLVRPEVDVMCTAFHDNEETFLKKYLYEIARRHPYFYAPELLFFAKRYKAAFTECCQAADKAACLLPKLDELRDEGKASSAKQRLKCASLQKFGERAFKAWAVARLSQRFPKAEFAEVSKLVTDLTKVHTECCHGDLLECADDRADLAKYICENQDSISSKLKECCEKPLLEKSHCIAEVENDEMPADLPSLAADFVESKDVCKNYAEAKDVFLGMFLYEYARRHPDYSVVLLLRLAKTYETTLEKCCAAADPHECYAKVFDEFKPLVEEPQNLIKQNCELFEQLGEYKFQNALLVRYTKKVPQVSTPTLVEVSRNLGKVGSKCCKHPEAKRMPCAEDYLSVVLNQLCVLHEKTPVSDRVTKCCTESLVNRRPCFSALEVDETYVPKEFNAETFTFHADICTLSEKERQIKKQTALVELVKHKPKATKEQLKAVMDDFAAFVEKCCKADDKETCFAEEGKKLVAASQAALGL

## [Ga+3].[O-]c1cccc2cccnc12.[O-]c1cccc2cccnc12.[O-]c1cccc2cccnc12 [GaQ3, Tris(8-Quinolinolato)gallium(III), reference compound]
[1]
  effect of LMM competitors on the complex: practically not affected
[2]; UV–vis and fluorescence
  binding via intermolecular interactions to apoTf (and Tf): no such binding was observed
[3]
  logK’ (HSA binding constant): 4.04

## Cc1c([O-])c(=O)ccn1C.Cc1c([O-])c(=O)ccn1C.Cc1c([O-])c(=O)ccn1C.[In+3] [InD3]
[4]
  In(III) ion bound to the protein (deferiprone liberation): ca. 7%
  complex bound to HSA: ca. 8%
[2]; UV–vis deconvolution and ultrafiltration
  apoTf needed for practically quantitative displacement of the ligand: ca. 0.5 equiv.

## [In+3].[O-]c1cccc2cccnc12.[O-]c1cccc2cccnc12.[O-]c1cccc2cccnc12 [InQ3, Tris(8-Quinolinolato)indium(III)]
[5]
  τ3: 4.7 ± 0.2 ns
  τ4: 13.8 ± 0.4 ns
[6]
  complex remained: ca. 34%
